Where a name gives a salt, the structure may show the parent alone.
Key:
[1] = tested on: isolated tracheal strips from ovalbumin-sensitised guinea pigs; experiment: β2-desensitisation in isolated tracheal strips from ovalbumin-sensitised guinea pigs (carbachol-induced contraction); design: species or system guinea pig
Protocol: A prolonged use of β2-agonists results in down-regulation of pulmonary β2-adenoceptors. This phenomenon can be counteracted by concomitant treatment with a corticosteroid.
In the present study tracheal strips obtained from ovalbumin-sensitised guinea-pigs (100 mg/kg ip and 100 mg/kg sc, 20 days before sacrifice) were submitted to β2-desensitisation by contact for two 20-min periods with a supra-maximal concentration of salbutamol (5*10^−6 M). In some experiments guinea pigs 24 and 1.5 h before sacrifice received 50 mg/kg ip of budesonide.

[2] = tested on: asthmatic patients; experiment: Preliminary clinical trial of bronchodilator efficacy (FEV1 by spirometry) in asthmatic patients; assay type: in vivo; conditions: single dose of 1 μg, inhalation
Protocol: The bronchodilator efficacy of TA 2005, defined as increase from baseline in the forced expiratory volume over one second (FEV1), measured by spirometry, has been assessed in a preliminary clinical trial in a small group of asthmatic patients.
The results have shown that already following administration of a single dose of 1 μg a mean and persistent increase of FEV1 approximately 30% greater than baseline can be obtained.

[3] = tested on: isolated guinea pig tracheal strips; experiment: Carbachol-induced contraction in isolated guinea pig tracheal strips
Description: The pharmacological interaction between the β2-adrenoceptor agonist TA 2005 and the M3-receptor antagonist tiotropium bromide was investigated in isolated guinea pig tracheal strips contracted with carbachol.

[4] = tested on: rat lung oedema induced by Sephadex; experiment: Sephadex-induced lung oedema model; assay type: in vivo; conditions: intratracheal; for non effective dose on Sephadex-induced lung oedema: from dose-response curves
Protocol: The rat lung oedema induced by Sephadex is a model which leads to inflammatory cells infiltration and long-lasting interstitial oedema. […] The test substances were suspended in saline and administered intratracheally suitably diluted in the Sephadex suspension. 24 h post-administration, the animals were sacrificed and the lungs removed and weighted. Percent inhibition of the Sephadex-induced oedema was then determined.

[5] = tested on: healthy male volunteers; conditions: single inhaled doses 0.8-12.8 μg, cited from earlier work
[6] = tested on: acetylcholine-induced bronchoconstriction in guinea-pigs; experiment: Acetylcholine-induced bronchoconstriction in guinea pigs (Konzett and Rossler); assay type: in vivo, guinea pig; conditions: for ED50, acetylcholine-induced bronchoconstriction: acetylcholine 20 μg/kg iv, superfused onto tracheal mucosa
Protocol: Guinea pigs were prepared as originally described by Konzett and Rossler, Naunyn-Schmiedeberg's Arch Pharmacol, 1940; 195: 556-557.
Bronchoconstriction was induced by intravenous administration of acetylcholine (20 μg/kg). The antibronchospastic activity of different concentrations of tiotropium (0.1 to 30 pmol) or TA 2005 (0.3 to 100 pmol), alone or in combination, was investigated.

[7] = tested on: bronchoconstriction induced by acetaldehyde in the guinea pig; experiment: Acetaldehyde-induced bronchoconstriction, histamine release and plasma extravasation in anaesthetized ventilated guinea pigs; assay type: in vivo
Protocol: Pharmacol., 362:184-189, 2000; as well as in a model of acetaldehyde induced bronchoconstriction (Berti et al., Arzneim-Forsch/Drug Res 1994; 44: 323-326).
The protective activity of TA 2005 (0.1 to 10 pmol), formoterol (0.3 to 30 pmol) or budesonide (31.25 to 500 nmol) was determined after intratracheal superfusion alone or in combination.

## COc1ccc(CC(C)NCC(O)c2ccc(O)c3[nH]c(=O)ccc23)cc1 [TA 2005, 8-Hydroxy-5-[(1R)-1-hydroxy-2-[[(1R)-2-(4-methoxyphenyl)-1-methylethyl]amino]ethyl-2(1H)-quinolinone hydrochloride salt]
[1]; after β2-desensitisation with salbutamol 5*10^−6 M
  loss of potency in relaxing the carbachol-induced contraction: about 3 times
[1]; after β2-desensitisation, budesonide pretreatment 50 mg/kg ip 24 and 1.5 h before sacrifice
  potentiation of relaxing effects: about 6 times
[2]
  mean and persistent increase of FEV1 greater than baseline: approximately 30%
[3]; Cavia porcellus, TA 2005 10^−12 M
  inhibition at 1 pM: 29.3 ± 6.1%
[4]
  non effective dose on Sephadex-induced lung oedema: 0.01 nmol/kg
[5]; metered dose nebuliser system
  maximum no adverse effect dose: 9.6 µg
[5]
  effect on heart rate, tremor, pulmonary function and plasma potassium: dose-dependent increase in heart rate, tremor and pulmonary function and a decrease in plasma potassium
[6]; 3 pmol of TA 2005 in the absence of tiotropium
  inhibition of the effect of acetylcholine: 18%
[6]
  ED50, acetylcholine-induced bronchoconstriction: 16.7 pmol

## CCCC1O[C@@H]2C[C@H]3[C@@H]4CCC5=CC(=O)C=C[C@]5(C)[C@H]4[C@@H](O)C[C@]3(C)[C@]2(C(=O)CO)O1 (stereo partly shown) [budesonide]
[4]; budesonide alone (absence of TA 2005)
  dose of budesonide needed to significantly inhibit Sephadex-induced lung oedema: 240 nmol/kg
[4]; in the presence of TA 2005 (0.01 nmol/kg)
  dose of budesonide significantly inhibiting Sephadex-induced lung oedema: 15 nmol/kg
[4]; in the presence of formoterol (0.1 nmol/kg)
  dose of budesonide giving significant reduction in Sephadex-induced lung weight increase: 120 nmol/kg
[7]; budesonide alone, intratracheal superfusion
  ED50, bronchoconstriction: 396 nmol
[7]; combined with 0.1 pmol of TA 2005
  fold reduction of budesonide ED50, bronchoconstriction: 5.3 fold
[7]; combined with 0.3 pmol of TA 2005
  fold reduction of budesonide ED50, bronchoconstriction: 14.3 fold
[7]; combined with 0.3 pmol of formoterol
  fold reduction of budesonide ED50, bronchoconstriction: 3.0 fold
[7]; combined with 1 pmol of formoterol
  fold reduction of budesonide ED50, bronchoconstriction: 5.9 fold

## COc1ccc(CC(C)NCC(O)c2ccc(O)c(NC=O)c2)cc1 (stereo not shown) [formoterol]
[4]; 24 h post-administration, TA 2005 0.001-0.1, formoterol 0.01-2, budesonide 15-480 nmol/kg
  effect on Sephadex-induced lung oedema: dose-dependent remission
[4]
  non effective dose on Sephadex-induced lung oedema: 0.1 nmol/kg
[7]; 30 pmol, intratracheal superfusion
  decline of anti-bronchoconstrictive effect after 240 min: ~50%
[7]; intratracheal superfusion, TA 2005 0.1-10 pmol, formoterol 0.3-30 pmol, budesonide 31.25-500 nmol
  effect on AcCHO effects (bronchoconstriction, histamine release, plasma extravasation): potently antagonised

## C[N+]1(C)[C@@H]2C[C@@H](OC(=O)C(O)(c3cccs3)c3cccs3)C[C@H]1[C@@H]1O[C@@H]12 [tiotropium bromide]
[3]; tiotropium bromide 3*10^−10 M
  inhibition of carbachol-induced contraction: 17.1±2.2%
[6]; P<0.001
  potency relative to TA 2005: 5.2 fold
[6]
  ED50, acetylcholine-induced bronchoconstriction: 3.2 pmol
[6]; tiotropium 0.1-30 pmol, TA 2005 0.3-100 pmol, alone
  effect on acetylcholine-induced bronchoconstriction: dose-dependently antagonize
